Data as given in the supplement of paper PMC11451515.

Test system: P12-Ichikawa
Assay: cell viability relative to DMSO control; higher = less cytotoxic
Details: 48 h
Outline: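 NOMO1 or SEM cells were plated at 500 cells/well and P12-Ichikawa cells at 1000 cells/well in 1536-well plates (5 μl), after each leukemia line had been adapted for at least four passages in each medium. Pin dosing delivered library compounds in DMSO at 11 threefold concentrations, 47 μM to 0.79 nM. CellTiter-Glo One luminescence was read after 48 h at 37°C. Viability is reported as a per-plate percentage of DMSO wells, with cell-free wells as background.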

[1] = HPLM + 10% dialyzed FBS, 0.000781 µM
[2] = HPLM + 10% dialyzed FBS, 0.00234 µM
[3] = HPLM + 10% dialyzed FBS, 0.00702 µM
[4] = HPLM + 10% dialyzed FBS, 0.0211 µM
[5] = HPLM + 10% dialyzed FBS, 0.0632 µM
[6] = HPLM + 10% dialyzed FBS, 0.19 µM
[7] = HPLM + 10% dialyzed FBS, 0.569 µM
[8] = HPLM + 10% dialyzed FBS, 1.71 µM
[9] = HPLM + 10% dialyzed FBS, 5.12 µM
[10] = HPLM + 10% dialyzed FBS, 15.4 µM
[11] = HPLM + 10% dialyzed FBS, 46.1 µM
[12] = RPMI 5 mM glucose + 10% dialyzed FBS, 0.000781 µM
[13] = RPMI 5 mM glucose + 10% dialyzed FBS, 0.00234 µM
[14] = RPMI 5 mM glucose + 10% dialyzed FBS, 0.00702 µM
[15] = RPMI 5 mM glucose + 10% dialyzed FBS, 0.0211 µM
[16] = RPMI 5 mM glucose + 10% dialyzed FBS, 0.0632 µM
[17] = RPMI 5 mM glucose + 10% dialyzed FBS, 0.19 µM
[18] = RPMI 5 mM glucose + 10% dialyzed FBS, 0.569 µM
[19] = RPMI 5 mM glucose + 10% dialyzed FBS, 1.71 µM
[20] = RPMI 5 mM glucose + 10% dialyzed FBS, 5.12 µM
[21] = RPMI 5 mM glucose + 10% dialyzed FBS, 15.4 µM
[22] = RPMI 5 mM glucose + 10% dialyzed FBS, 46.1 µM
[23] = RPMI 5 mM glucose + 10% FBS, 0.000781 µM
[24] = RPMI 5 mM glucose + 10% FBS, 0.00234 µM
[25] = RPMI 5 mM glucose + 10% FBS, 0.00702 µM
[26] = RPMI 5 mM glucose + 10% FBS, 0.0211 µM
[27] = RPMI 5 mM glucose + 10% FBS, 0.0632 µM
[28] = RPMI 5 mM glucose + 10% FBS, 0.19 µM
[29] = RPMI 5 mM glucose + 10% FBS, 0.569 µM
[30] = RPMI 5 mM glucose + 10% FBS, 1.71 µM
[31] = RPMI 5 mM glucose + 10% FBS, 5.12 µM
[32] = RPMI 5 mM glucose + 10% FBS, 15.4 µM
[33] = RPMI 5 mM glucose + 10% FBS, 46.1 µM

Row | SMILES | cell viability [1] | cell viability [2] | cell viability [3] | cell viability [4] | cell viability [5] | cell viability [6] | cell viability [7] | cell viability [8] | cell viability [9] | cell viability [10] | cell viability [11] | cell viability [12] | cell viability [13] | cell viability [14] | cell viability [15] | cell viability [16] | cell viability [17] | cell viability [18] | cell viability [19] | cell viability [20] | cell viability [21] | cell viability [22] | cell viability [23] | cell viability [24] | cell viability [25] | cell viability [26] | cell viability [27] | cell viability [28] | cell viability [29] | cell viability [30] | cell viability [31] | cell viability [32] | cell viability [33]
1 | CC(C)Nc1cc(C(F)(F)F)cc2nc(NC(=O)c3cccnc3)nn12 | 113% | 115% | 117% | 116% | 108% | 107% | 108% | 10.1% | 12.6% | 14.6% | 33.5% | 121% | 115% | 113% | 113% | 116% | 114% | 111% | 28.2% | 24.1% | 24.9% | 37% | – | – | – | – | – | – | – | – | – | – | –
2 | CCOc1cc(N)c(Cl)cc1C(=O)NCC1CN(Cc2ccc(F)cc2)CCO1 (stereo not given) | 104% | 110% | 106% | 110% | 110% | 111% | 109% | 100% | 119% | 112% | 109% | 99.3% | 106% | 106% | 102% | 108% | 117% | 107% | 112% | 106% | 105% | 104% | 107% | 116% | 106% | 112% | 109% | 115% | 115% | 115% | 115% | 119% | 112%
3 | CC(=O)O[C@@]1(CC[C@H]2[C@@H]3\C=C(C)/C4=C/C(=O)CC[C@]4(C)[C@H]3CC[C@]12C)C(C)=O | 99.7% | 115% | 109% | 114% | 109% | 117% | 112% | 112% | 115% | 106% | 89.1% | 94.9% | 102% | 101% | 112% | 103% | 108% | 106% | 107% | 98.2% | 93.2% | 79% | 101% | 107% | 110% | 117% | 115% | 117% | 120% | 109% | 100% | 99.5% | 85.5%
4 | NC(=O)c1ncn([C@@H]2O[C@H](CO)[C@@H](O)[C@H]2O)n1 | 122% | 120% | 102% | 109% | 110% | 118% | 116% | 111% | 96.3% | 82% | 76.1% | 115% | 107% | 123% | 115% | 120% | 100% | 106% | 105% | 82.4% | 69.3% | 62.5% | 116% | 121% | 115% | 123% | 122% | 103% | 112% | 104% | 88.3% | 79.4% | 62.8%
5 | OC[C@H]1O[C@H]([C@@H](F)[C@@H]1O)N2\C=C/C(=O)NC2=O | 110% | 108% | 108% | 110% | 108% | 112% | 114% | 102% | 99.6% | 98% | 94.1% | 109% | 93.5% | 104% | 100% | 99.4% | 97% | 105% | 96% | 93.6% | 93.5% | 88.6% | 99% | 108% | 108% | 91.6% | 97.9% | 114% | 106% | 102% | 92.1% | 102% | 106%
6 | CC1(C)CCC(=C(CN2CCN(CC2)C3=CC=C(C=C3)C(=O)N[S+]([O-])(=O)C4=CC(=C(N[C@H](CCN5CCOCC5)CSC6=CC=CC=C6)C=C4)[S+]([O-])(=O)C(F)(F)F)\C1)/C7=CC=C(Cl)C=C7 | 116% | 120% | 121% | 122% | 92.5% | 40.9% | 20% | 6.68% | 7.29% | 7.3% | 4.74% | 120% | 124% | 127% | 122% | 109% | 73.4% | 39.1% | 7.42% | 7.07% | 6.25% | 4.69% | – | – | – | – | – | – | – | – | – | – | –
7 | C[C@@H]1CN[C@H]2[C@@H](C)[C@@]\3(CC[C@H]\4[C@@H]5C/C=C6/C[C@@H](O)CC[C@]6(C)[C@H]5CC4=C3C)O[C@@H]2C1 | – | – | – | – | – | – | – | – | – | – | – | 119% | 125% | 123% | 121% | 124% | 115% | 114% | 114% | 109% | 101% | 93.1% | – | – | – | – | – | – | – | – | – | – | –
8 | O=C(/C=C/c1c(C(=O)[O-])[nH]c2cc(Cl)cc(Cl)c12)Nc1ccccc1 | 106% | 111% | 105% | 103% | 116% | 114% | 115% | 116% | 113% | 111% | 109% | 103% | 99.5% | 107% | 110% | 107% | 108% | 103% | 107% | 66.2% | 108% | 113% | 98% | 105% | 107% | 106% | 108% | 110% | 112% | 120% | 104% | 107% | 106%
